ChEMBL document CHEMBL4699540, “Discovery and structure activity relationships of 7-benzyl triazolopyridines as stable, selective, and reversible inhibitors of myeloperoxidase” (Bioorg Med Chem, 2020)

Tests used:
[1] = Metabolic stability in human liver microsomes assessed as compound remaining; assay type: ADME, Microsome
[2] = Permeability of compound at pH 7.4 by PAMPA assay; assay type: ADME; settings: read-out: permeability
[3] = Metabolic stability in mouse liver microsomes assessed as compound remaining; assay type: ADME, Microsome
Cytochrome P450 3A4 = Cytochrome P450 3A4 (Homo sapiens, UniProt P08684); assay: Inhibition of CYP3A4 (unknown origin); assay type: ADME
[4] = Stability of compound at pH 1 assessed as half life; assay type: physicochemical; settings: buffer
[5] = Dissociation constant, pKa of the compound; assay type: physicochemical
[6] = target: T1, Methylated-DNA--protein-cysteine methyltransferase (Homo sapiens, UniProt P16455); assay: Inhibition of human MGMT using 06-benzylguanine as substrate incubated for 30 mins by LC/MS analysis; settings: 0.5 h
T1 sequence (P16455 whole entry): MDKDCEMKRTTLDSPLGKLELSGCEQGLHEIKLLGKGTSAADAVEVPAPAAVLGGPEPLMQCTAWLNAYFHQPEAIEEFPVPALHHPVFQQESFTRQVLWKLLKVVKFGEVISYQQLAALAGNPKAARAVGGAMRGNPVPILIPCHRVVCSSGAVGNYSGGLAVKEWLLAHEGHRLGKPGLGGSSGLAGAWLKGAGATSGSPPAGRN

Myeloperoxidase [7] = target: T2, Myeloperoxidase (Homo sapiens, UniProt P05164); assay: Inhibition of recombinant human MPO incubated for 10 mins by amplex red dye based assay
T2 sequence (P05164 whole entry): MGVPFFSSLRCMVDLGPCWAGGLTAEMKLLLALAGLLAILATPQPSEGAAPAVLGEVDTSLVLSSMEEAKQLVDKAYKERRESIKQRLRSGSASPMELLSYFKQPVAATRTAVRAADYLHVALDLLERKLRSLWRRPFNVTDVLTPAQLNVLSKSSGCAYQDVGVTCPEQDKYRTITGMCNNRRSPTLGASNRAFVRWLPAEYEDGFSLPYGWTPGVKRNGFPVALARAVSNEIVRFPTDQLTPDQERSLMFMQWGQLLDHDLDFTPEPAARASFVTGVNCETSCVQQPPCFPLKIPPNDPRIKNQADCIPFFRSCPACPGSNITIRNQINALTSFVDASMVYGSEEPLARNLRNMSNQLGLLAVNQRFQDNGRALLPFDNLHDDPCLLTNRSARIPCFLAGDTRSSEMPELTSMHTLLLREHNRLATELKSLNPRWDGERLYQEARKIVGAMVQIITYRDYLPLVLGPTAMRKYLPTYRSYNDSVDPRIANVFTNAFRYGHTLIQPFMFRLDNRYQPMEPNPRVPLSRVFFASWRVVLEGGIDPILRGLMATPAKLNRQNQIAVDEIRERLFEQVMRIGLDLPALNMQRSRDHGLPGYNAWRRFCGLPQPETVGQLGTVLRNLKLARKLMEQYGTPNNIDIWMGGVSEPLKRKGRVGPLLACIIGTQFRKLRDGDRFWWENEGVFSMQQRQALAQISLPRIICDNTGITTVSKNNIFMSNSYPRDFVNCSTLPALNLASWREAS

Myeloperoxidase [8] = target: T2, Myeloperoxidase; assay: Inhibition of recombinant human MPO incubated for 10 mins in presence of 240 mM NaCl and 10 uM H2O2 by aminophenyl fluorescein based assay
Thyroid peroxidase = target: T3, Thyroid peroxidase (Homo sapiens, UniProt P07202); assay: Inhibition of TPO (unknown origin) using 3-iodo tyrosine as substrate incubated for 10 mins
T3 sequence (P07202 whole entry): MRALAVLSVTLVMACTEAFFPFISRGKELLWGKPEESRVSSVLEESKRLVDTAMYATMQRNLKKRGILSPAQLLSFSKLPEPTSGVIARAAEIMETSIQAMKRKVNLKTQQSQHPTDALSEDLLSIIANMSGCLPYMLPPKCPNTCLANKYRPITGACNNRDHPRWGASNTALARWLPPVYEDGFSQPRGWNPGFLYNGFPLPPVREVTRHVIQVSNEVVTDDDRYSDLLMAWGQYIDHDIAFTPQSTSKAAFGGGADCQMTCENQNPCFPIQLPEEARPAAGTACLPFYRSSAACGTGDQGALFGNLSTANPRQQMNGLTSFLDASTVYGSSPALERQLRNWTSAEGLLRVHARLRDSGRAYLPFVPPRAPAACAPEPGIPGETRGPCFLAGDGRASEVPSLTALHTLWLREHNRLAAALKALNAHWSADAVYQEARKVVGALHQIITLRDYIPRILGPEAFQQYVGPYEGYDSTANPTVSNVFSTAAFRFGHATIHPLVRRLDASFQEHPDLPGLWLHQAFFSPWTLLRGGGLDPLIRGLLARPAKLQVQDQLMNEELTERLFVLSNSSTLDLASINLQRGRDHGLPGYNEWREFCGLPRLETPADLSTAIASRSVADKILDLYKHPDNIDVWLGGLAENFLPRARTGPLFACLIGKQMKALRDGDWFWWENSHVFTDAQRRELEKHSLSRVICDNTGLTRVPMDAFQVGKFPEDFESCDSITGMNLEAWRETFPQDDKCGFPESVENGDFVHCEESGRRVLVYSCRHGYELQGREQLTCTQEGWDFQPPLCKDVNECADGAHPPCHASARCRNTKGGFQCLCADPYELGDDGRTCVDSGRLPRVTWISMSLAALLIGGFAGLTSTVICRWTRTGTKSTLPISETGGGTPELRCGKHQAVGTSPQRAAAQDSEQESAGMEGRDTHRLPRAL

Cytochrome P450 3A4, sequence (P08684 whole entry): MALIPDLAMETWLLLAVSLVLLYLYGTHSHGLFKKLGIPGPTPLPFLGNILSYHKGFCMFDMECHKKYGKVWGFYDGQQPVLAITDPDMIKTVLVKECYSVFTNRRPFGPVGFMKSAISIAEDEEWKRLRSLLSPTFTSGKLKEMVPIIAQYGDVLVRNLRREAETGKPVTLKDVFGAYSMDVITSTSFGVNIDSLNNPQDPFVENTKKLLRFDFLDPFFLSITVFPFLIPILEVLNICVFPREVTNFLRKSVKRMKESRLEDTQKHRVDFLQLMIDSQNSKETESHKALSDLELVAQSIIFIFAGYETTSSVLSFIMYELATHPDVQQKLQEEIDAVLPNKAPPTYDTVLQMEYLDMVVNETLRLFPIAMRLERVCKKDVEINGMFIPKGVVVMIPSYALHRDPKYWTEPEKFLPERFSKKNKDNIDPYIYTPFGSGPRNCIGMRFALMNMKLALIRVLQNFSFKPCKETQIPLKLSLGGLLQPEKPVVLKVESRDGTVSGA

Stabilty [1] | Papp [2] | Stabilty [3] | IC50 (Myeloperoxidase [7]) | IC50 (Myeloperoxidase [8]) | SMILES | also measured
65% | 6.5 ×10⁻⁶ cm/s | 51% | – | – | Nc1cc([C@H](CCN[C@H]2CCc3ccccc32)c2ccccc2)c2nn[nH]c2n1 | –
– | 0.1 ×10⁻⁶ cm/s | – | – | – | CN(CC[C@H](c1ccccc1)c1cc(N)nc2[nH]nnc12)C12CCC(c3ccccc3)(CC1)CC2 | –
31% | 125 ×10⁻⁶ cm/s | 1% | – | – | Nc1cc([C@H](CCCc2ccccc2)c2ccccc2)c2nn[nH]c2n1 | IC50 (Cytochrome P450 3A4): 1800 nM
– | 10.4 ×10⁻⁶ cm/s | – | – | – | Nc1cc(C(CCNC23CCC(c4ccccc4)(CC2)OC3)c2ccccc2)c2nn[nH]c2n1 (centres undefined) | –
– | 21.7 ×10⁻⁶ cm/s | – | – | – | Nc1cc([C@H](CCN(CCF)C23CCC(c4ccccc4)(CC2)CC3)c2ccccc2)c2nn[nH]c2n1 | –
73% | 2.4 ×10⁻⁶ cm/s | 45% | – | – | Nc1cc([C@H](CCN[C@@H]2CC[C@@H](c3ccccc3)C2)c2ccccc2)c2nn[nH]c2n1 | –
– | – | – | 428 nM | 110 nM | Nc1nc(Cc2ccccc2)c2nn[nH]c2n1 | half-life [4]: 16 h; pKa [5]: 6.3; inhibition (INH) [6]: Not Active
– | 1.3 ×10⁻⁶ cm/s | – | – | – | Nc1cc([C@H](CCCN2CCC(c3ccccc3)CC2)c2ccccc2)c2nn[nH]c2n1 | –
– | – | – | 1430 nM | 683 nM | Nc1cc(Cc2cccc(C(F)(F)F)c2)c2nn[nH]c2n1 | –
91% | 1.7 ×10⁻⁶ cm/s | 85% | – | – | Nc1cc([C@H](CCNC23CCC(c4ccccc4)(CC2)CC3)c2ccccc2)c2nn[nH]c2n1 | –
– | – | – | 9840 nM | 7450 nM | Nc1nc(CCc2ccccc2)c2nn[nH]c2n1 | –
– | – | – | 9300 nM | 1700 nM | Nc1cc(Cc2ccc(Cl)cc2)c2nn[nH]c2n1 | –
35% | – | 28% | – | – | Nc1cc([C@H](CCN[C@H]2C[C@@H](c3ccccc3)c3ccccc32)c2ccccc2)c2nn[nH]c2n1 | –
88% | 4.3 ×10⁻⁶ cm/s | 85% | – | – | Nc1cc([C@H](CCNCc2ccccc2)c2ccccc2)c2nn[nH]c2n1 | IC50 (Cytochrome P450 3A4): 12000 nM; IC50 (Thyroid peroxidase): > 50000 nM
– | – | – | 32 nM | 16 nM | Nc1cc(Cc2cccc(Cl)c2)c2nn[nH]c2n1 | –
2% | 23.7 ×10⁻⁶ cm/s | 3% | – | – | Nc1cc([C@H](CCNCc2ccccc2C(F)(F)F)c2ccccc2)c2nn[nH]c2n1 | –
– | – | – | > 40000 nM | > 40000 nM | Nc1nc(NCc2ccccc2)c2nn[nH]c2n1 | pKa [5]: 7.8
– | 3.7 ×10⁻⁶ cm/s | – | – | – | Nc1cc([C@H](CCN[C@@H]2CC[C@@H](c3ccccc3)OC2)c2ccccc2)c2nn[nH]c2n1 | –
– | – | – | 46 nM | 32 nM | Nc1cc(Cc2ccccc2F)c2nn[nH]c2n1 | –
– | – | – | 77 nM | 127 nM | Nc1cc(Cc2cccc(-c3ccccc3)c2)c2nn[nH]c2n1 | –
2% | 73 ×10⁻⁶ cm/s | 1% | – | – | Nc1cc([C@H](CCOCc2ccccc2)c2ccccc2)c2nn[nH]c2n1 | IC50 (Cytochrome P450 3A4): 2600 nM; IC50 (Thyroid peroxidase): 6300 nM
– | – | – | 188 nM | 57 nM | Nc1cc(Cc2ccc3ccccc3c2)c2nn[nH]c2n1 | –
– | – | – | > 40000 nM | > 40000 nM | CN(Cc1ccccc1)c1nc(N)nc2[nH]nnc12 | –
– | – | – | 17 nM | 29 nM | COC(=O)c1cccc(Cc2cc(N)nc3[nH]nnc23)c1 | –
– | – | – | – | – | Nc1cc(OCc2ccccc2)c2nn[nH]c2n1 | half-life [4]: > 100 h; inhibition (INH) [6]: Active
80% | – | 79% | – | – | Nc1cc([C@H](CCN[C@H]2CC[C@H](c3ccccc3)CC2)c2ccccc2)c2nn[nH]c2n1 | –
9% | – | 10% | – | – | Nc1cc([C@H](CCN[C@@H]2CC[C@@H](c3ccccc3)c3ccccc32)c2ccccc2)c2nn[nH]c2n1 | –

SMILES | Stabilty [1] | Papp [2] | Stabilty [3] | IC50 (Myeloperoxidase [7]) | IC50 (Myeloperoxidase [8]) | also measured
Nc1cc([C@H](Cc2ccccc2)c2ccccc2)c2nn[nH]c2n1 | 84% | 64.8 ×10⁻⁶ cm/s | 53% | – | – | IC50 (Cytochrome P450 3A4): 3400 nM
